We go through 1 molecule from paper PMC3898838, “Design, Synthesis, and Biological Evaluation of an Allosteric Inhibitor of HSET that Targets Cancer Cells with Supernumerary Centrosomes” (Chemistry & Biology, 2013).

The test system of one experiment is NHDF cells. In words: Time-lapse microscopy, mitotic fate. It is filed as cell-based, human. Conditions: 200 μM. The procedure:
(§1) Cells were synchronized in G2-M by incubation at 37°C and 5% CO2 for 24 hr with 9 μM of the CDK1 inhibitor RO-3306 (Merck). Cells were released by removal of the RO-3306 and four washings of 10 min each, at 37°C, with prewarmed culture media + 10% FBS. N1E-115 cells were transfected with siRNA (Supplemental Experimental Procedures) and imaged from 6 hr after transfection. Some RO-3306-synchronized cells were released with 200 μM CW069, 100 μM monastrol, or 0.2% DMSO, and imaging started immediately or 1 hr after treatment. Imaging was carried out for 24 hr, or for 4 hr in the case of the CW069/monastrol cotreatment. Imaging was conducted every 5 min in a humidified chamber with 37°C and 5% CO2, using a Nikon Eclipse TE2000-E microscope, and analyzed with NIS-Elements software (Nikon, Tokyo, Japan). The morphology of cells in mitosis and the mitotic fate (bipolar division, multipolar division, or cell death) were analyzed.

Another experiment relates to MCF-7 cells. In words: Time-lapse microscopy, mitotic fate. It is filed as cell-based, human. Conditions: MCF-7, 200 μM. As to the method:
as §1

Another experiment concerns N1E-115 cells. In words: Immunofluorescence, mitotic spindle morphology. It is filed as cell-based, mouse. The following applies: 2.5 hr, control 30%. From the text: Using IF, we next examined the mitotic phenotypes induced by CW069 in N1E-115 and NHDF cells, with a strong focus on centrosome numbers and mitotic spindle morphology. Antibodies against α-tubulin, CDK5RAP2, and DAPI were employed to visualize MTs, centrosomes, and DNA, respectively. We hypothesized that small-molecule inhibition of HSET would give rise to mitotic spindle defects similar to those reported after HSET knockdown by siRNA transfection ([Kwon et al., 2008]), and this was indeed the case. […] After treatment, the N1E-115 cells formed multipolar spindles due to a lack of centrosome clustering, consistent with HSET inhibition in cells with supernumerary centrosomes (Figure 4C).
[…] Prewarmed 4% paraformaldehyde in PBS was then added to each well to fix the cells before washing with PBS. Permeabilization and blocking was performed by incubating the slides with 1% BSA, 0.3% Triton X-100, 5% goat serum in PBS (PBS/B/0.3%T+5%GS) for 1 hr while shaking them at room temperature (RT). The slides were incubated with primary antibody solutions (mouse monoclonal anti-α-Tubulin [catalog number T9026; Sigma-Aldrich] and rabbit anti-CDK5RAP2 [catalog number A300-554A; Bethyl Laboratories]) at 4°C for 16 hr. […]

A further experiment concerns HeLa cells. In words: Time-lapse video microscopy, mitotic duration, arrest and exit. It is filed as cell-based, human. The following applies: 200 μM CW069, 100 μM monastrol. The procedure: HSET is known to antagonize the activity of the related kinesin, KSP, during spindle formation ([Mountain et al., 1999]). Therefore, we used time-lapse video microscopy to investigate whether CW069-treated cells transit mitosis with normal kinetics, and whether the characteristic mitotic arrest induced by inhibition of KSP ([Mayer et al., 1999]) could be suppressed by cotreatment with CW069. To this end, HeLa cells were treated with either DMSO control (0.2%), 200 μM CW069, 100 μM monastrol, or CW069+monastrol for 60 min before being imaged every 5 min for a further 360 min. Mitotic duration (MD) was defined as the period of time between when the cells began to round up and the onset of anaphase. No statistical difference was recorded between control cells and cells treated with 200 μM CW069 (MD 55 ± 7 and 53 ± 6 min, respectively, Figures 6A, 6B, and S7). […] This effect was reversed to a large extent by cotreatment of CW069 with monastrol. […] This is consistent with observations previously reported for KSP-depleted cells ([Mountain et al., 1999]). […] Cells were synchronized in G2-M by incubation at 37°C and 5% CO2 for 24 hr with 9 μM of the CDK1 inhibitor RO-3306 (Merck). Cells were released by removal of the RO-3306 and four washings of 10 min each, at 37°C, with prewarmed culture media + 10% FBS. N1E-115 cells were transfected with siRNA (Supplemental Experimental Procedures) and imaged from 6 hr after transfection. Some RO-3306-synchronized cells were released with 200 μM CW069, 100 μM monastrol, or 0.2% DMSO, and imaging started immediately or 1 hr after treatment. Imaging was carried out for 24 hr, or for 4 hr in the case of the CW069/monastrol cotreatment. Imaging was conducted every 5 min in a humidified chamber with 37°C and 5% CO2, using a Nikon Eclipse TE2000-E microscope, and analyzed with NIS-Elements software (Nikon, Tokyo, Japan). The morphology of cells in mitosis and the mitotic fate (bipolar division, multipolar division, or cell death) were analyzed.

In experiment [1] the target is T1, full-length, N-terminal, 6His-tagged human HSET (Homo sapiens, UniProt Q9BW19).
T1 sequence (Q9BW19 307-663 limits assumed): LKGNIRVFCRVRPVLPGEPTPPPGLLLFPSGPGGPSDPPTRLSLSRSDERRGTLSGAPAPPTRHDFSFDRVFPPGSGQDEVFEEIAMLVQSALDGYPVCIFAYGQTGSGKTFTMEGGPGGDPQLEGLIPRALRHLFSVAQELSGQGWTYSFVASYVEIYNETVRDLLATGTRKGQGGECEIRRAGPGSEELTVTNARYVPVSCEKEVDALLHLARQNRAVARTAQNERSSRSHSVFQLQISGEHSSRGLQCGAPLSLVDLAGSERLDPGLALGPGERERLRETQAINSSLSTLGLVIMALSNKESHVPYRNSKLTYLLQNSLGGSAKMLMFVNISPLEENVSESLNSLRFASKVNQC
In words: Differential scanning fluorimetry (DSF). It is filed as binding. The following applies: CW069 0.03125-1 mM in 4% DMSO. As to the method:
DSF is an inexpensive and rapid method for identifying ligands of purified proteins, and relies on the difference in protein unfolding temperature in the presence and absence of a small molecule ([Niesen et al., 2007]). The unfolding temperature is measured by the increase in fluorescence of a dye with particular affinity for the hydrophobic regions of proteins, which become exposed upon unfolding ([Niesen et al., 2007]). The difference in the transition midpoint, ΔTm, in the presence of a ligand is related to its binding affinity; however, this is not a direct measure of the binding coefficient and therefore was not used to calculate the affinity of CW069 for HSET ([Holdgate and Ward, 2005]).

Where [2] appears, read: >200 cells that entered mitosis >60 min after treatment.

In the case of `O=C(O)c1cc(I)ccc1NC(=O)[C@H](Cc1ccccc1)NCc1ccccc1` [CW069], the multipolar anaphase formation result with NHDF cells was “No similar increase in multipolar anaphase formation”. In the experiment with MCF-7 cells, the bipolar division result was “remained unaffected”. For the same molecule, the multipolar spindle formation in the experiment on N1E-115 cells (N1E-115, 100 μM) was found to be 98%; with N1E-115 cells (N1E-115, 200 μM) it was 86%. Further, in the experiment with HeLa cells (setting [2]), the “Mitotic Arrest (%)” value was found to be 4%. The “Mitotic Exit (%)” value in the experiment with HeLa cells (setting [2]) is on record as 96%. The “Mitotic duration (MD)” value in the experiment with HeLa cells (rounding up to anaphase onset, cells transiting mitosis) was 53 ± 6 min. Also, in experiment [1], the “maximum HSET ΔTm” value was −8.0 °C.
